Here are results for one molecule from paper PMC7610535 (Nature chemical biology, 2020).

Where a chain is given by its changes, count along the chain named.

For one assay, the target named is AURORA-A^K162R (Homo sapiens, UniProt O14965+Q96SW2, I57V/K162R). The assay can be described thus: Immunoblot of HA-tagged kinase-dead AURORA-A^K162R. The assay is classed as cell-based. Conditions: 1 µM, 18 hours. Background: Immunoblotting shows a protein as a band on a membrane.
A further assay concerns the target T1, AURORA-A (Homo sapiens, UniProt O14965).
T1 sequence (O14965 1-403): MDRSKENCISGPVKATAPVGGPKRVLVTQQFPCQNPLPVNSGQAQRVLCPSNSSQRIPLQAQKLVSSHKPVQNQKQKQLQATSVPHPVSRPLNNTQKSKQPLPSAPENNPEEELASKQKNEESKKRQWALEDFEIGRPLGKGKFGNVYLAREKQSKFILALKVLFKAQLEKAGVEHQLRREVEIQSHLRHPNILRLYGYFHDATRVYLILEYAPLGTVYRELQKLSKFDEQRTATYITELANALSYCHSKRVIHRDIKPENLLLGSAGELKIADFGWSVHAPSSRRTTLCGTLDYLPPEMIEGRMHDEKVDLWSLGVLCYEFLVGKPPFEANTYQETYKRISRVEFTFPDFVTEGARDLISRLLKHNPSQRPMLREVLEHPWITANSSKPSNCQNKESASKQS
Kind of assay: AURORA-A-NanoLuc target engagement assay. The assay is classed as binding.

Another assay deals with T2, AURORA-A^D274N (Homo sapiens, UniProt O14965, D274N).
T2 sequence (O14965 1-403 D274N): T1 sequence (O14965 1-403) with D274N
The assay can be described thus: Immunoblot of HA-tagged kinase-dead AURORA-A^D274N. Conditions: 1 µM, 18 hours. The format is cell-based.

The target in another assay is AURORA-B (Homo sapiens, UniProt Q96GD4). The assay can be described thus: AURORA-B-NanoLuc target engagement assay. The format is binding. Conditions: AURORA-B EC50 (µM), HEK293 cells, energy transfer probe, 2 hours, mean ± s.e.m, n = 2.

As a reminder, the EC50 is the concentration giving half of the maximal effect. High values mean lower potency in that assay, low ones higher potency in that assay.

AURORA-A^K162R, sequence (O14965 whole entry I57V/K162R): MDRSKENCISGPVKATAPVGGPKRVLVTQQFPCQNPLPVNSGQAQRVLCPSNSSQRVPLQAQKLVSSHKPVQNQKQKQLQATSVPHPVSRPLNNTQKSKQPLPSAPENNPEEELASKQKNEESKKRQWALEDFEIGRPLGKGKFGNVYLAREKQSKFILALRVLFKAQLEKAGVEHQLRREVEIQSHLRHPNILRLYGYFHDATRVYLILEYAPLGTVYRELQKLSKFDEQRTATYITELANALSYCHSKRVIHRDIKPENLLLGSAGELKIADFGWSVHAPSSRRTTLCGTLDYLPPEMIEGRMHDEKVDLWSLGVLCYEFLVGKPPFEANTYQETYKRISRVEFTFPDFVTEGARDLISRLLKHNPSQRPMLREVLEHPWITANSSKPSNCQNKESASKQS
AURORA-A^K162R, sequence (Q96SW2 whole entry): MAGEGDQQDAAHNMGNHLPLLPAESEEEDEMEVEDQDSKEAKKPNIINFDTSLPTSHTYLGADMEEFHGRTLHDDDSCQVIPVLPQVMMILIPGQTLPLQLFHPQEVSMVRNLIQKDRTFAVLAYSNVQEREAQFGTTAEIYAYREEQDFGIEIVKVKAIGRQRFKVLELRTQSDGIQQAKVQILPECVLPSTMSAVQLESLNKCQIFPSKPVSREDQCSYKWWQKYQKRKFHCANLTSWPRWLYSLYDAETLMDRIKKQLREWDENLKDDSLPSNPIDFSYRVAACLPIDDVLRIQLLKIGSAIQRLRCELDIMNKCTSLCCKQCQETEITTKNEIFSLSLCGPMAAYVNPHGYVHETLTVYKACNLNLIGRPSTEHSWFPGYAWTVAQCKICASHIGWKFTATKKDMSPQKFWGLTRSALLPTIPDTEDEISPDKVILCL
AURORA-A^K162R, sequence (Q16531 whole entry partner): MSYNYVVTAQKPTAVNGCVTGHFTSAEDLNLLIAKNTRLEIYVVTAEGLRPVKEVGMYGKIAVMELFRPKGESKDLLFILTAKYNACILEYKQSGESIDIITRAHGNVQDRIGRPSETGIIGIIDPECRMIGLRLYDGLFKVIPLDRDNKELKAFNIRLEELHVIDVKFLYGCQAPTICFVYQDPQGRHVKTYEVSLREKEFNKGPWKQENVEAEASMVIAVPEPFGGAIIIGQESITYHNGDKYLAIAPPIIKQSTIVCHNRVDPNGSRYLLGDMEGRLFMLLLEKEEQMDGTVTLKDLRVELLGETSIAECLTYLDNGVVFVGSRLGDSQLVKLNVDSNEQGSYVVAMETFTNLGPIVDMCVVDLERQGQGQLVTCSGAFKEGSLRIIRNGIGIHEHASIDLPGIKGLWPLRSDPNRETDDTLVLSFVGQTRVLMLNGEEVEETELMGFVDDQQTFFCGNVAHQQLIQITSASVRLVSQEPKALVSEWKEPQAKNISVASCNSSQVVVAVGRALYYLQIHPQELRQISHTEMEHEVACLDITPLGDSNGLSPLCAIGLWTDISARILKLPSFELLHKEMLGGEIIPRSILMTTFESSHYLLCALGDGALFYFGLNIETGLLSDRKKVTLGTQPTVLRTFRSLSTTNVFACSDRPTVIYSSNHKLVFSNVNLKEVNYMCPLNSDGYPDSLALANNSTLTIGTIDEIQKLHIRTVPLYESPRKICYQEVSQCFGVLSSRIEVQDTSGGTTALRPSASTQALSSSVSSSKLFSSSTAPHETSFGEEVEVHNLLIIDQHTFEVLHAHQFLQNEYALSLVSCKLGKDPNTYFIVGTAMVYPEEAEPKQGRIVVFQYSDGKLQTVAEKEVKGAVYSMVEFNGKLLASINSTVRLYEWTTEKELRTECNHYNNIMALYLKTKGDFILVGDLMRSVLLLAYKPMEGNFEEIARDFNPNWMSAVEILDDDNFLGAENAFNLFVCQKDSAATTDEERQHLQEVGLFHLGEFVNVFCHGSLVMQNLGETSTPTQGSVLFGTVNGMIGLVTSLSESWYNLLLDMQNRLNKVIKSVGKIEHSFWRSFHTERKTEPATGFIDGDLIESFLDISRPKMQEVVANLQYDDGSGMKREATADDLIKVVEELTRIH
AURORA-B, sequence (Q96GD4 whole entry): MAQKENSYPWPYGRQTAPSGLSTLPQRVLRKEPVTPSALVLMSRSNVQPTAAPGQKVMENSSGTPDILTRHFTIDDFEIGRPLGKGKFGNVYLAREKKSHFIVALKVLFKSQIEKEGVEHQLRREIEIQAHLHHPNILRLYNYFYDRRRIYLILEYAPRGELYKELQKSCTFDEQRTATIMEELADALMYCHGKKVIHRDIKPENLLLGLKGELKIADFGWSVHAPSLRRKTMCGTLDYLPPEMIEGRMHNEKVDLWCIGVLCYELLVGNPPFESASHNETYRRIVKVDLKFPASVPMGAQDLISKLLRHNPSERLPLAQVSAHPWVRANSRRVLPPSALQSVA

For the molecule `COc1cc(Nc2ncc3c(n2)-c2ccc(Cl)cc2C(c2c(F)cccc2OC)=NC3)ccc1C(=O)NCCOCCOCCNC(=O)COc1cccc2c1C(=O)N(C1CCC(=O)NC1=O)C2=O` (centres unmarked) [JB170], the “depletion of AURORA-A^K162R” value at AURORA-A^K162R was “depleted by JB170 to a similar degree as the unmutated protein”. In addition, the EC50 came to 0.193 µM on AURORA-A and 1.4 µM on AURORA-B. At AURORA-A (AURORA-A vs AURORA-B, depending on experimental conditions (BRET, Kinobeads)), the “difference of affinities for AURORA-A and AURORA-B” value was 3- to 50 fold. In addition, the “depletion of AURORA-A^D274N” value at AURORA-A^D274N was “depleted by JB170 to a similar degree as the unmutated protein”.
